PMC6149922, “2-Substituted Aniline as a Simple Scaffold for LuxR-Regulated QS Modulation” (Molecules : A Journal of Synthetic Chemistry and Natural …, 2017)

Biological target: T1, LuxR (Aliivibrio fischeri, UniProt P12746)
T1 sequence (P12746 1-250): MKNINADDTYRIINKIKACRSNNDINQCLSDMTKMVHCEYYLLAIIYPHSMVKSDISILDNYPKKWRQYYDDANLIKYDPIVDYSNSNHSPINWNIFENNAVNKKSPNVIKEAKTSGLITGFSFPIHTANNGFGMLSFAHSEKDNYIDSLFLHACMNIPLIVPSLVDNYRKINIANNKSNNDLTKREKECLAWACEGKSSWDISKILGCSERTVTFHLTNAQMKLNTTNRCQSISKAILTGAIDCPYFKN
Assay: antagonism of […] 3-oxo-C6-HSL-induced bioluminescence, recombinant E. coli NM522 pSB401 LuxR biosensor
Format: cell-based

SMILES: CCCC(=O)Nc1ccccc1[N+](=O)[O-] [compound 1, N-(2-nitrophenyl)butanamide]
- IC50: 58 µM

SMILES: CCCCCC(=O)Nc1ccccc1[N+](=O)[O-] [compound 2, N-(2-nitrophenyl)hexanamide]
- IC50: 94 µM

SMILES: CCCCCC(=O)Nc1ccccc1 [compound 12, N-Phenylhexanamide]
- IC50: 79 µM
